Experimental findings from ChEMBL document CHEMBL5108052, “Histone Deacetylase and Enhancer of Zeste Homologue 2 Dual Inhibitors Presenting a Synergistic Effect for the Treatment of Hematological Malignancies” (J Med Chem, 2022) are described below.

Data set [1] concerns MV4-11. Briefly: Antitumor activity against human MV4-11 cells xenografted in BALB/c nude mouse assessed as tumor growth inhibition at 50 mg/kg, ip administered for 20 days in presence of by vernier caliper analysis. It is filed as functional. To be noted: MV4-11, 480 h, time 20 day, read-out: TGI. (In general: Xenograft models place foreign cells or tissue in a host animal.)

Data set [2] relates to MV4-11. Description: Induction of apoptosis in human MV4-11 cells assessed as necrotic cells at 0.2 uM measured after 48 hrs by Annexin V/7-AAD-dual staining based flow cytometric analysis (reference value: 0.3 %). It is filed as functional.
The target of data set [3] is Histone deacetylase 2 (Homo sapiens, UniProt Q92769). Description: Inhibition of full length recombinant human C-terminal GST-fusion-tagged human HDAC2 (1 to 488 residues) expressed in insect cells using RHK-K(Ac)-AMC as substrate incubated for 2 hrs by Multimode microplate reader analysis.
Data set [4] concerns MV4-11. Briefly: Induction of apoptosis in human MV4-11 cells assessed as viable cells at 0.4 uM measured after 48 hrs by Annexin V/7-AAD-dual staining based flow cytometric analysis (reference value: 96.4 %). In kind it is functional. To be noted: read-out: Activity.
The test system of data set [5] is MV4-11. Description: Induction of apoptosis in human MV4-11 cells assessed as early apoptotic cells at 0.2 uM measured after 48 hrs by Annexin V/7-AAD-dual staining based flow cytometric analysis (reference value: 2.2 %). In kind it is functional. (In general: A flow cytometer gives signals particle by particle.)
Data set [6] deals with MV4-11. Description: Induction of apoptosis in human MV4-11 cells assessed as necrotic cells at 0.1 uM measured after 48 hrs by Annexin V/7-AAD-dual staining based flow cytometric analysis (reference value: 0.3 %). In kind it is functional.
Data set [7] deals with T1, Histone deacetylase 7 (Homo sapiens, UniProt Q8WUI4).
T1 sequence (Q8WUI4 whole entry): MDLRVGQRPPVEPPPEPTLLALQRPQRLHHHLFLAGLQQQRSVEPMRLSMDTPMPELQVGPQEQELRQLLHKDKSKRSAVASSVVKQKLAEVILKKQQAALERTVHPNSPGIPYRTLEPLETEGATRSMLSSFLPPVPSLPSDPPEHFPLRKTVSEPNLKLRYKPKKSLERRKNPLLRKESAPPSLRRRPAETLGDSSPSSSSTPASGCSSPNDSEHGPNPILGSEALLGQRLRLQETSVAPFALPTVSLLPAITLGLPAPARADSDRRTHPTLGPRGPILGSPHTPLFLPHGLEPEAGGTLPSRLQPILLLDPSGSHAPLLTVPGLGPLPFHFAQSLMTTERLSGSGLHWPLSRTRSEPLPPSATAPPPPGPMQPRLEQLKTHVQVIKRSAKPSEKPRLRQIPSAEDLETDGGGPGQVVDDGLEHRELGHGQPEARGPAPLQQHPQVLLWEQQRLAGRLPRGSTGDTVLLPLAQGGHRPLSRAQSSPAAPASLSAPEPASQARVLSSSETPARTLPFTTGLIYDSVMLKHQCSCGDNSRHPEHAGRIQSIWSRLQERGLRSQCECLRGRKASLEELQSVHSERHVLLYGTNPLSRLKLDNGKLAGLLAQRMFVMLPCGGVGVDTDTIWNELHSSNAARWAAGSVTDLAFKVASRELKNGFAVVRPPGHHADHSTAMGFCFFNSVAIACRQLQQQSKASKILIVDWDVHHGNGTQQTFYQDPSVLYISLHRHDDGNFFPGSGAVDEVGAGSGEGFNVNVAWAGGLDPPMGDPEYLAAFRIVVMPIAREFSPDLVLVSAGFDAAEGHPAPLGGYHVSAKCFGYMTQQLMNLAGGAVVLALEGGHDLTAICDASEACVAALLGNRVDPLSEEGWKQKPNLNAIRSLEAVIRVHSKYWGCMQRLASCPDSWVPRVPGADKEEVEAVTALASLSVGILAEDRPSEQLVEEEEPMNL
Briefly: Inhibition of N-terminal GST-fusion tagged recombinant human HDAC7 (518 to 991 residues) expressed in insect cells using trifluoroacetyl lysine as substrate incubated for 2 hrs by Multimode microplate reader analysis.

Data set [8] relates to MV4-11. Description: Induction of apoptosis in human MV4-11 cells assessed as late apoptotic cells at 0.4 uM measured after 48 hrs by Annexin V/7-AAD-dual staining based flow cytometric analysis (reference value: 1.1 %). In kind it is functional.
Data set [9] deals with L02. Briefly: Cytotoxicity against human L02 cells assessed as increase in combination index measured after 72 hrs by CCK-8 assay. In kind it is toxicity, cell-based. To be noted: l02, 72 h.
Data set [10] relates to MV4-11. Briefly: Induction of apoptosis in human MV4-11 cells assessed as late apoptotic cells at 0.1 uM measured after 48 hrs by Annexin V/7-AAD-dual staining based flow cytometric analysis (reference value: 1.1 %). In kind it is functional.
In data set [11] the test system is MV4-11. Briefly: Induction of apoptosis in human MV4-11 cells assessed as viable cells at 0.2 uM measured after 48 hrs by Annexin V/7-AAD-dual staining based flow cytometric analysis (reference value: 96.4 %). It is filed as functional. To be noted: read-out: Activity.
For data set [12], the target named is T2, Histone deacetylase 8 (Homo sapiens, UniProt Q9BY41).
T2 sequence (Q9BY41 whole entry): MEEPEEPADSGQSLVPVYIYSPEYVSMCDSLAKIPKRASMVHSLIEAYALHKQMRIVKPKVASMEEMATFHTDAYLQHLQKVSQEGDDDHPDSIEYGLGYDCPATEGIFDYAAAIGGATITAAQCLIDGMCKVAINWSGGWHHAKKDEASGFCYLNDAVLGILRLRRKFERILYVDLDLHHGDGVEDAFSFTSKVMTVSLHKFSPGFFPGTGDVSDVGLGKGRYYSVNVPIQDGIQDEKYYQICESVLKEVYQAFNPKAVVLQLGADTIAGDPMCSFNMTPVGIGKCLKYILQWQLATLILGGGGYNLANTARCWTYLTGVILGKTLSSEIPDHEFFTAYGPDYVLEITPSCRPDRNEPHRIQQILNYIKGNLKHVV
Briefly: Inhibition of recombinant C-terminal His-fusion tagged/N-terminal Strep2 tagged human HDAC8 (1 to 377 residues) expressed in insect cells using RHK-K(Ac)-K(Ac)-AMC as substrate incubated for 2 hrs by Multimode microplate reader analysis.

Data set [13] has as its system MV4-11. Description: Induction of apoptosis in human MV4-11 cells assessed as early apoptotic cells at 0.4 uM measured after 48 hrs by Annexin V/7-AAD-dual staining based flow cytometric analysis (reference value: 2.2 %). In kind it is functional.
Data set [14] concerns the target Histone deacetylase 4 (Homo sapiens, UniProt P56524). Description: Inhibition of N-terminal GST-tagged/C-terminal His-tagged human HDAC4 (627 to 1084 residues) expressed in baculovirus expression system using trifluoroacetyl lysine as substrate incubated for 2 hrs by Multimode microplate reader analysis.
Data set [15] has as its target Histone deacetylase 5 (Homo sapiens, UniProt Q9UQL6). Briefly: Inhibition of recombinant C-terminal his fusion-tagged human HDAC5 (656 to 1122 residues) expressed in baculovirus expression system using trifluoroacetyl lysine as substrate incubated for 2 hrs by Multimode microplate reader analysis.
A short description of data set [16]: Binding affinity to recombinant PRC2 complex (unknown origin) incubated for 90 seconds by surface plasmon resonance assay. More on the design: species or system Homo sapiens. (Surface plasmon resonance follows binding to a sensor surface in real time, without labels.)
A short description of data set [17]: Metabolic stability in human liver microsomes assessed as half life measured after 5 mins in presence of NADPH and UDPGA by LC-MS/MS analysis. In kind it is ADME, Microsome.

For orientation: IC50 means the concentration that inhibits the measured activity by half. Broadly, the Kd is the constant that tells how readily two partners part at equilibrium. Broadly, the half-life is the time needed for the level to fall by half in the phase considered.

Chain of Histone deacetylase 2 (Q92769 whole entry, the tested form may be a part): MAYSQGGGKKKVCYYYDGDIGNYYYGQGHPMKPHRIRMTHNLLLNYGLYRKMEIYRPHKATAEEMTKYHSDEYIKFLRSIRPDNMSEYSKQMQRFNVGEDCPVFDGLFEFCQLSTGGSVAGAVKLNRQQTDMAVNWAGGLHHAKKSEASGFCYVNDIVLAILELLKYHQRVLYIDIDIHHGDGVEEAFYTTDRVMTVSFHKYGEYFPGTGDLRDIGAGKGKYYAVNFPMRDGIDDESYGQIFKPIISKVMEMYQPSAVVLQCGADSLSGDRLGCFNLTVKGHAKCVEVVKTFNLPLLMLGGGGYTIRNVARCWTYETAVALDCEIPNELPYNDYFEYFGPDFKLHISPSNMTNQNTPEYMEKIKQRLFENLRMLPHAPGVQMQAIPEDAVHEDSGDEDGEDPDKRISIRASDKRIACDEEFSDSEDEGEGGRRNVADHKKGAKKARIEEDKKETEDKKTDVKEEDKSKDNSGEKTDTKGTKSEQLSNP
Chain of Histone deacetylase 5 (Q9UQL6 whole entry, the tested form may be a part): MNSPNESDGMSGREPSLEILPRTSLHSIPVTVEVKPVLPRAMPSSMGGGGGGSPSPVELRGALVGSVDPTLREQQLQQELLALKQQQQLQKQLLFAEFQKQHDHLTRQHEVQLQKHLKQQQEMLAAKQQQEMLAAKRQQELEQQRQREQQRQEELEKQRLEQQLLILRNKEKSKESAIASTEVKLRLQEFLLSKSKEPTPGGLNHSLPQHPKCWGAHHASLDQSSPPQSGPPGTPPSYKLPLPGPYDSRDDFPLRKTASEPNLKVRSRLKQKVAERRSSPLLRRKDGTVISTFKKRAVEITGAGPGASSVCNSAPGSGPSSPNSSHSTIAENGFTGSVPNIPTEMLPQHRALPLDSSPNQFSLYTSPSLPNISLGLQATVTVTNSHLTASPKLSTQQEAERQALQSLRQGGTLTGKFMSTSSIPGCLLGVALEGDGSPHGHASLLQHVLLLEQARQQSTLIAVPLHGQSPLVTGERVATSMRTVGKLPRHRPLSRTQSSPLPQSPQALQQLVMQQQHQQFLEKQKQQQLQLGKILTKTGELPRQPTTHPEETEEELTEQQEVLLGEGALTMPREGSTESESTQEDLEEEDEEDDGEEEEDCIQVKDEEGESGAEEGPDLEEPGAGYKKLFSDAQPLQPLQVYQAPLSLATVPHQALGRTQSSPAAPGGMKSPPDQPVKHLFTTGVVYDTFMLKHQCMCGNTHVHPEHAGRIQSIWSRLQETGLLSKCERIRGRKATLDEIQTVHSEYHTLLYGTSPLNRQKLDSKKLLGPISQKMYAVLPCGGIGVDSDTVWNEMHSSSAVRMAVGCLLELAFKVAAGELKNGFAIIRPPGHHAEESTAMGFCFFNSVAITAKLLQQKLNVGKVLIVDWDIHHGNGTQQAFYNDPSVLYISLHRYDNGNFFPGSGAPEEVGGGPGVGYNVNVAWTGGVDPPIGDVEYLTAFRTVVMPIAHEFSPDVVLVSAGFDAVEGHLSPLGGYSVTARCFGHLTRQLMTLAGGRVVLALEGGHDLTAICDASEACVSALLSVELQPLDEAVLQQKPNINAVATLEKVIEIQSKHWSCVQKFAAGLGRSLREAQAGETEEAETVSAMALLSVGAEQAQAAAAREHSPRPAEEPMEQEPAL
Chain of Histone deacetylase 4 (P56524 whole entry, the tested form may be a part): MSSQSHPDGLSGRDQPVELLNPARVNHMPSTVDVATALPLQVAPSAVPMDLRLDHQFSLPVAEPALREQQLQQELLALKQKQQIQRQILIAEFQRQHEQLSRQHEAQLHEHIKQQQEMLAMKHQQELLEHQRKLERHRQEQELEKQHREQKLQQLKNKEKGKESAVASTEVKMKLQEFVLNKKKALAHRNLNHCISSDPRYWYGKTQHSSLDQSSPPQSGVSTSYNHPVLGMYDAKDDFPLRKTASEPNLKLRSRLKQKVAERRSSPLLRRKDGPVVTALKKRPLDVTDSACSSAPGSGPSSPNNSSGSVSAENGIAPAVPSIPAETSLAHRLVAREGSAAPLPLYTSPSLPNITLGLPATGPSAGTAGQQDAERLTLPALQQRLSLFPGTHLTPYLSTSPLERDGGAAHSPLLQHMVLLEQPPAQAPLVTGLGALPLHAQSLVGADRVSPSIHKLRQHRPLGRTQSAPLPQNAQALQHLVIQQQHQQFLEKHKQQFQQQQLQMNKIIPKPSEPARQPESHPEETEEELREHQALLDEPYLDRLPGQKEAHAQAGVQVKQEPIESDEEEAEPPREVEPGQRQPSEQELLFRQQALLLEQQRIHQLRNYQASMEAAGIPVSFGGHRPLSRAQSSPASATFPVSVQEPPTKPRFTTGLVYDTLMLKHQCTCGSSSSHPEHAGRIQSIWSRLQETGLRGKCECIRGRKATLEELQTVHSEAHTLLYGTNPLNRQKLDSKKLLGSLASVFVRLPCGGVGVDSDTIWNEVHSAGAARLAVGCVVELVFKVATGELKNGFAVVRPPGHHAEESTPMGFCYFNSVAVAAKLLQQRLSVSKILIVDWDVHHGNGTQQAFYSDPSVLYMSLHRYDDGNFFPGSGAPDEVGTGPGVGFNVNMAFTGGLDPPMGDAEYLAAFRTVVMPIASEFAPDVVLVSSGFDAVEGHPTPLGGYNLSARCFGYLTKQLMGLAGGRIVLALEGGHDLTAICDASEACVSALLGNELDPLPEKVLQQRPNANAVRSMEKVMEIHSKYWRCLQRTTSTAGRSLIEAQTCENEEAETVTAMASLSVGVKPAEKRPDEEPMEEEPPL

On to `Cc1cc(C)c(CNC(=O)c2cc(-c3ccc(N4CCN(c5ncc(C(=O)NO)cn5)CC4)nc3)cc3c2cnn3C(C)C)c(=O)[nH]1`, for which, in [1], the inhibition in vivo at 50 mg/kg worked out at 65.7%. Also, the Activity is on record as 2% in data set [2]; 10.3% in data set [5]; 1.9% in data set [6]; 17.1% in data set [8]; “Toxic” in data set [9]; 4.4% in data set [10]. Moreover, the Activity in [13] was 23.3%. In addition, the concentration for half-maximal inhibition (IC50) in [3] stood at 780 nM; in data set [7], 8190 nM; in data set [12], 110 nM; in data set [14] it was 5640 nM; in [15], 2860 nM. In data set [4], the viability at 0.4 µM worked out at 53.8%. Besides, the viability at 0.2 µM in data set [11] was 74%. For the same compound, in data set [16], the Kd was 39 nM. Moreover, the half-life in data set [17] was 15.3 min.
